One data set can be described thus: Solubility test of compound (a) with and without solubilizers (Experimental Example 1; HPLC of filtrate).
Conditions: not given
The protocol: Solubility tests of the compound (a) (2-amino-7-isopropyl-5-oxo-5H-[1]-benzopyrano[2,3-b]pyridine-3-carboxylic acid) employing the solubilizers of this invention and, for comparison, employing various conventional solubilizers were performed.
The solubility was measured by the following manner:
An excess amount of the compound (a) was added to a given volume of a phosphate buffer, the mixture was sufficiently stirred, then the pH was adjusted to a given level, the mixture was allowed to stand at room temperature (25° C.) for 48 hours, the resultant was subjected to filtration with 0.45μ membrane filter, followed by measuring the concentration of the compound (a) in the filtrate by means of high performance liquid chromatography.
`NNC(=O)c1ccncc1` [isoniazid, reference compound]: the “effect for improving the solubility of compound (a)” value (shortened to “effect for improving the solubility”) is “some improvement”. In the case of `OC[C@H]1O[C@@H]2O[C@H]3[C@H](O)[C@@H](O)[C@@H](O[C@H]4[C@H](O)[C@@H](O)[C@@H](O[C@H]5[C@H](O)[C@@H](O)[C@@H](O[C@H]6[C@H](O)[C@@H](O)[C@@H](O[C@H]7[C@H](O)[C@@H](O)[C@@H](O[C@H]8[C@H](O)[C@@H](O)[C@@H](O[C@H]1[C@H](O)[C@H]2O)O[C@@H]8CO)O[C@@H]7CO)O[C@@H]6CO)O[C@@H]5CO)O[C@@H]4CO)O[C@@H]3CO` [β-cyclodextrin], the “effect for improving the solubility” value is “excellent effect”. With “Polyoxyethylene sorbitan monooleate [Tween 80, reference compound]”, the “effect for improving the solubility” value was “less effective”.

For polyvinylpyrrolidone, the “effect for improving the solubility” value is “excellent effect”.

Still in this data set, the particulars now being: in words; substance used as solubilizer.
`O=C([O-])c1ccccc1O.[Na+]` [sodium salicylate, reference compound]: the “effect for improving the solubility” value is “less effective”. On the same count and under the same terms, in the case of `NC(N)=O` [urea, reference compound] it was “less effective”.

For the origin of these results see US4728509A, “Aqueous liquid preparation” (Takeda Chemical Industries, Ltd., priority 1985, dated 1988).
